According to the NIST ThermoML archive (doi:10.1016/j.fluid.2006.11.005):

Experiment: xn = mol fraction of the nth substance listed
Conditions: 101.33 kPa, Liquid

ClC(Cl)Cl [trichloromethane] + CCO
mass density [kg/m3]
Conditions | 288.15 K | 293.15 K | 298.15 K | 303.15 K | 308.15 K | 313.15 K
x2 = 0 | 1498.08 | 1488.64 | 1479.15 | 1469.61 | 1460.03 | 1450.41
x2 = 0.0485 | 1472.17 | 1462.84 | 1453.46 | 1444.03 | 1434.55 | 1425.03
x2 = 0.0997 | 1444.69 | 1435.55 | 1426.28 | 1416.99 | 1407.64 | 1398.25
x2 = 0.1993 | 1389.44 | 1380.64 | 1371.77 | 1362.83 | 1353.83 | 1344.78
x2 = 0.2999 | 1331.01 | 1322.64 | 1314.2 | 1305.7 | 1297.12 | 1288.5
x2 = 0.4002 | 1269.36 | 1261.46 | 1253.5 | 1245.47 | 1237.37 | 1229.18
x2 = 0.4984 | 1204.89 | 1197.52 | 1190.08 | 1182.57 | 1174.99 | 1167.34
x2 = 0.5504 | 1168.93 | 1161.84 | 1154.69 | 1147.44 | 1140.19 | 1132.84
x2 = 0.6001 | 1133.49 | 1126.69 | 1119.83 | 1112.9 | 1105.9 | 1098.85
x2 = 0.6949 | 1062.09 | 1055.88 | 1049.61 | 1043.28 | 1036.89 | 1030.44
x2 = 0.794 | 981.537 | 976.02 | 970.455 | 964.839 | 959.165 | 953.436
x2 = 0.8503 | 933.183 | 927.998 | 922.772 | 917.5 | 912.175 | 906.798
x2 = 0.9001 | 888.356 | 883.494 | 878.595 | 873.653 | 868.659 | 863.612
